# Measurements published in patent US7745426B2, “Compositions and methods for reducing the risk of epileptic occurrence and/or for treatment of seizure disorders” (D-Pharm Ltd., priority 2003, dated 2010).
# Where a name gives a salt, the structure may show the parent alone.
# Experiments:
# Assay type in all cases: in vivo
# [1] = test system: audiogenic sensitive rats, sound-induced convulsions; assay: Sound-induced convulsions in audiogenic sensitive rats chronically treated with PHT with or without pyridoxine; details: 100 db sound
# Source text: Phenyloin (PHT) is prescribed for medication of generalized […] generalized convulsions, complex partial seizures and simple partial seizures. […] In the experiments, intensity of 100 db sound stimulation was used. […] The second group included pyridoxine-untreated rats. […] Eleven rats were used in each group.
# [2] = test system: epilepsy-prone (EP) subline of BALB/c mice, PTZ-induced convulsions; assay: PTZ-induced convulsive reaction in genetically epilepsy-prone (EP) mice, compounds given i.p.; details: for anticonvulsive effect against PTZ-induced convulsive reaction (FIG. 1): 10 mg/kg i.p. 30 minutes prior to PTZ i.p., recorded 30 min
# Method: The animal model used is epilepsy-prone (EP) subline of mice that was selectively bred from a strain of BALB/c mice (Dolina et al. in Epilepsia (1993) 43: 33-42).
# EP mice were subjected to seizure induction by intraperitoneal (i.p.) injection of pentylenetetrazol (PTZ) 50-60 mg/kg dissolved in saline. The EP animals were i.p. treated with the tested compound(s) 10 to 60 minutes prior to the PTZ injection.
# The tested compounds were the following: • 1) NC-001 10 mg/kg • 2) Pyridoxine hydrochloride (=Vitamin B6) 10 mg/kg • 3) GABA 10 mg/kg • 4) Separately injected Vitamin B6 and GABA, 10 mg/kg each. A group of EP animals injected with PTZ only, with no further treatment, served as a control group.
# The intensity of the PTZ-induced convulsive reaction for each group was evaluated in scores according to the following scale:
# (§1) Intensity of PTZ-induced Convulsive Reaction in Scores • 1. A few myoclonic jerks (less than 10) • 2. Less than 20 jerks • 3. Less than 30 jerks • 4. 30-40 jerks/jerks and jumps/short partial convulsions. • 5. Uninterrupted jerks/series of jerks and jumps/repeated partial convulsions • 5.5 Abortive generalized convulsions • 6. Single generalized convulsive attack • 7. Series of jerks, jumps & single generalized convulsive attack; single generalized convulsions with further motor excitation • 7.5 Severe prolonged generalized convulsions • 8. Repeated generalized convulsions • 9. Series of jerks/jumps & repeated convulsions • 10. Status epilepticus • 12. Lethal convulsions
# In each group of EP animals, convulsive reactions were recorded during the first 30 minutes following administration of the seizure inducer.
# Genetically epilepsy-prone (EP) BALB/c mice, 3-5 animals in a group, were i.p. administered with either 5 mg/kg, 7.5 mg/kg or 10 mg/kg of NC-001 thirty minutes prior to i.p. injection of PTZ (60 mg/kg). The numbers of seizures were then recorded for each animal during 30 minutes following the PTZ injection. The intensity of convulsive reaction was scored for each of the treatment groups.
# [3] = test system: epilepsy-prone (EP) mice, PTZ-induced convulsions; assay: PTZ-induced convulsive reaction in EP mice, NC-001 orally administered; details: 30 mg/kg orally 30 min prior to PTZ 50 mg/kg i.p.; four female EP mice vs eight vehicle
# Source text: as §1
# In order to test the ability of the vitamin B6-GABA conjugated compound to cross the GI barrier, epilepsy-prone (EP) mice were orally administered with NC-001.
# A group of 12 female EP mice were i.p. treated with 50 mg/kg PTZ to induce seizures. Thirty minutes prior to PTZ administration, NC-001 at the dose of 30 mg/kg was orally administered to four of the animals (=treated group), the other eight animals were treated with vehicle only and served as a control group. All twelve animals were scored, during 30 minutes following i.p. PTZ administration, for intensity of convulsive reactions (see table of convulsive reaction scores as appear above in Example 4).
# [4] = EP mice, 10 mg/kg i.p. 30 minutes prior to PTZ, six tested mice
smiles,measurement,setting,value
"O=C1NC(=O)C(c2ccccc2)(c2ccccc2)N1 [PHT, 5,5-Diphenyl-2,4-imidazolidinedione]",number of tests with sound-induced convulsive reactions,"[1]; 22 tests per group, chronic PHT, days 13 and 14",6
same,tests resulting in sound-induced convulsions (percent of 22 tests),"[1]; PHT 75 mg/kg then 12 x 50 mg/kg once a day, tested days 13 and 14, 11 rats per group",27.3%
"Cc1ncc(CO)c(CO)c1O.Cl [Vitamin B6, Pyridoxine hydrochloride, reference compound]",anticonvulsive effect against PTZ-induced convulsive reaction (FIG. 1),[2]; EP mice,some protection against PTZ-induced generalized convulsions
"NCCCC(=O)O [GABA, γ-aminobutyric acid, reference compound]",anticonvulsive effect against PTZ-induced convulsive reaction (FIG. 1),[2]; EP mice,did not show any anticonvulsive effect
"Cc1ncc(COC(=O)CCCN)c(CO)c1O [NC-001, [5-Hydroxy-6-methyl-4-(hydroxymethyl)-pyrid-3-yl]methyl-4-aminobutyrate, dihydrochloride]","protective effect, intensity of convulsive reactions (FIG. 3)",[3],significant protective effect
same,EP mice that exhibited generalized convulsions,"[2]; 5 mg/kg i.p. 30 min prior to PTZ 60 mg/kg i.p., FIG. 2",two of the four
same,effect on generalized PTZ-induced convulsions,"[2]; 7.5 mg/kg i.p. 30 min prior to PTZ 60 mg/kg i.p., three EP mice, numerous jerks in all, FIG. 2",prevented generalized PTZ-induced convulsions in all three treated EP mice
same,effect on generalized convulsive reactions,"[2]; 10 mg/kg i.p. 30 min prior to PTZ 60 mg/kg i.p., single jerks in one mouse, FIG. 2",completely prevented generalized convulsive reactions
same,dose dependence of anti-convulsive effect,"[2]; 5, 7.5, 10 mg/kg i.p., PTZ 60 mg/kg, FIG. 2",dose-dependent anti-convulsive protective effect
same,anticonvulsive effect against PTZ-induced convulsive reaction (FIG. 1),[2]; EP mice,almost a complete protection against the convulsive symptoms
same,animals that had only few convulsive jerks,[2]; [4],two
same,mice that did not show any convulsive reaction,[2]; [4],Four out of the six
